ChEMBL document CHEMBL3244025, “Carbocyclic arabinosyladenine, an adenosine deaminase resistant antiviral agent” (J Med Chem, 1977)

Tested on: Vaccinia virus
Experiment: Antiviral activity against Vaccinia virus Lederle Chorioallantoic infected in human Hep2 cells assessed as inhibition of virus-induced cytopathogenic effect
Format: functional, Orthopoxvirus vaccinia, HEp-2

Nc1ncnc2c1ncn2[C@@H]1C[C@H](CO)[C@@H](O)[C@@H]1O (racemic)
MED50: 9 µg/mL
